According to patent US12125561B2, “Determination of JAK-STAT3 pathway activity using unique combination of target genes” (InnoSIGN B.V., priority 2017, dated 2024):

Legend:
Format in all cases: cell-based
[1] = test system: JAK-STAT3 cellular signaling pathway in EGFR mutant cells of lung cancer; assay: JAK-STAT3 pathway activity, lung Bayesian network model, calibration on data set GSE57156; conditions: calibration samples, group 1; DMSO-treated cells considered active; FIG. 9
From the text: Herein, available expression data sets of EGFR mutant cells of lung cancer from data set GSE57156 were used.
(§1) Herein, an exemplary Bayesian network model as shown in FIG. 2 was used to model the transcriptional program of the JAK-STAT3 cellular signaling pathway in a simple manner. The model consists of three types of nodes: (a) a transcription factor (TF) element (with states “absent” and “present”) in a first layer 1; (b) target genes TG1, TG2, TGn (with states “down” and “up”) in a second layer 2, and; (c) measurement nodes linked to the expression levels of the target genes in a third layer 3. These can be microarray probesets PS1,1, PS1,2, PS1,3, PS2,1, PSn,1, PSn,m (with states “low” and “high”), as preferably used herein, but could also be other gene expression measurements such as RNAseq or RT-qPCR.
A suitable implementation of the mathematical model, herein, the exemplary Bayesian network model, is based on microarray data. The model describes (i) how the expression levels of the target genes depend on the activation of the TF element, and (ii) how probeset intensities, in turn, depend on the expression levels of the respective target genes. […]

[2] = test system: JAK-STAT3 cellular signaling pathway in PC9 NSCLC cells; assay: JAK-STAT3 pathway activity prediction, lung model, data set GSE67051, PC9; conditions: PC 9, treated for 8 days, group 1 vs group 2; FIG. 13
From the text: as §1
(§2) A suitable implementation of the mathematical model, herein, the exemplary Bayesian network model, is based on microarray data. The model describes (i) how the expression levels of the target genes depend on the activation of the TF element, and (ii) how probeset intensities, in turn, depend on the expression levels of the respective target genes. For the latter, probeset intensities may be taken from fRMA pre-processed Affymetrix HG-U133Plus2.0 microarrays, which are widely available from the Gene Expression Omnibus (GEO, www.ncbi.nlm.nih.gov/geo) and ArrayExpress (www.ebi.ac.uk/arrayexpress). […]

[3] = test system: JAK-STAT3 cellular signaling pathway in epithelial cells from HaCaT cell lines; assay: JAK-STAT3 pathway activity prediction, lung model, data set GSE32975; conditions: EGF vs unstimulated control; gefitinib samples in group 6 and group 7; FIG. 11
From the text: Epithelial cells from HaCaT cell lines were stimulated with epidermal growth factor (EGF) in data set GSE32975. Each group represents one replica from the cell line.

[4] = test system: JAK-STAT3 cellular signaling pathway in Ishikawa H cells (derived endometrial carcinomas); assay: JAK-STAT3 pathway activity prediction, lung model, data set GSE20854; conditions: FIG. 12
Method: Ishikawa H cells (derived endometrial carcinomas) were dosed with either EGF (epidermal growth factor) or Iressa (gefitinib) for 12 or 24 hours in data set GSE20854.

[5] = test system: JAK-STAT3 cellular signaling pathway in tamoxifen initiated, transformation inducible, breast cancer model system; assay: JAK-STAT3 pathway activity prediction, lung model, data set GSE64536; conditions: FIG. 15
From the text: as §1, §2

[6] = test system: JAK-STAT3 cellular signaling pathway in Sez-4 cell line (cutaneous T-cell lymphoma); assay: JAK-STAT3 pathway activity prediction, blood model, data set GSE8685; conditions: cells starved of IL-2 for 16 hours, then IL-2 (200 U) resp. IL-15 (20 ng/mL); FIG. 16
Method: A Sez-4 cell line which was derived from a cutaneous T-cell lymphoma (data set GSE8685). […] IL-15 (20 ng/mL).

[7] = dosed for 12 hours, compared to undosed samples harvested at 12 hours
[8] = dosed for 24 hours, compared to undosed samples harvested at 24 hours

| Compound | predicted STAT3 pathway activity (odds that the TF element is present) [3] | predicted STAT3 pathway activity (odds that the TF element is present) [4, 7] | predicted STAT3 pathway activity (odds that the TF element is present) [4, 8] | further results |
| --- | --- | --- | --- | --- |
| C#Cc1cccc(Nc2ncnc3cc(OCCOC)c(OCCOC)cc23)c1 [erlotinib] | – | – | – | JAK-STAT3 pathway status of treated cells (odds that the TF element is present) [1]: JAK-STAT3 inactive; predicted STAT3 activity of DMSO-treated cells compared to erlotinib-treated cells [2]: higher |
| COc1cc2ncnc(Nc3ccc(F)c(Cl)c3)c2cc1OCCCN1CCOCC1 [gefitinib] | decreased STAT3 pathway activity | decreased STAT3 pathway activity | decreased STAT3 pathway activity | – |
| CC/C(=C(\c1ccccc1)c1ccc(OCCN(C)C)cc1)c1ccccc1 [tamoxifen] | – | – | – | predicted JAK-STAT3 activity of EtOH-treated cells compared to cells initiated with tamoxifen ([5]; 4 hours, group 1 vs group 3): higher; predicted JAK-STAT3 activity of EtOH-treated cells compared to cells initiated with tamoxifen ([5]; 24 hours, group 2 vs group 4): higher |
| IL-15: cytokine added to IL-2 starved Sez-4 cells | – | – | – | predicted JAK-STAT3 pathway status compared to the control group [6]: active |
| epidermal growth factor (NSDSECPLSHDGYCLHDGVCMYIEALDKYACNCVVGYIGERCQYRDLKWWELR; Epidermal growth factor; UniProt P01133 971-1023, looked up) [EGF, epidermal growth factor (EGF)] | higher STAT3 activity | higher STAT3 activity | higher STAT3 activity | – |
